{"source": "patent US10111876B2", "about": "“ALK Kinase Inhibitor and its use” (Macau University of Science and Technology, priority 2016, dated 2018)", "key": {"normal lung cells CCD19": {"tested_on": "normal lung cells CCD19", "assay": "MTT cell viability assay, normal lung cells CCD19", "assay_type": "cell-based", "conditions": "72 h treatment", "method": "(§1) H2228 and CCD19(Lu) cells were obtained from the American Type Culture Collection and cultured in an environment of 5% CO2 at 37° C. in RPMI-1640 mediums supplemented with 10% fetal bovine serum (FBS), 100 units/mL penicillin, and 100 μg/mL streptomycin.\n(§2) Cell viability was determined by MTT assay. H2228 and CCD19 cells (3×10^3 cells/well) were seeded into a 96-well plate and treated with indicated concentrations of the compound of Formula (V) for 72 h. At the end of incubation, 10 μl MTT (0.5 mg/ml) (Sigma) was added to each well. After incubating for 4 h at 37° C., supernatants were removed and 150 μl of DMSO was added. The formazan crystals formed inside the viable cells were solubilized in DMSO and the OD was read with Microplate Reader (Epoch, Winooski, USA) at 570 nm. The IC50 value for the compound was determined by GraphPad Prim5.0 software. The experiments were performed three times with three replicates in each."}, "[1]": {"biological_target": "recombinant ALK kinase domain (Homo sapiens, UniProt Q9UM73)", "sequence (Q9UM73 1116-1392 limits assumed)": "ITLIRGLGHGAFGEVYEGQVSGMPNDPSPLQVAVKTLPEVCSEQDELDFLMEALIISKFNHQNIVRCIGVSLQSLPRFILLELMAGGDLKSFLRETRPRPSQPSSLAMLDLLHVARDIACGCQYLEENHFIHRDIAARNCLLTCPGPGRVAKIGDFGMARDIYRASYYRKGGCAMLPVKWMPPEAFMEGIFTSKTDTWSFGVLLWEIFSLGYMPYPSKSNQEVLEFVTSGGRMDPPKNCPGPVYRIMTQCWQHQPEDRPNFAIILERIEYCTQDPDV", "assay": "LanthaScreen Eu Kinase Binding Assay, recombinant ALK kinase domain", "conditions": "room temperature, 1 h", "method": "Enzymatic assay for recombinant ALK kinase domain was conducted using the LanthaScreen® Eu Kinase Binding Assays. LanthaScreen® Eu Kinase Binding Assays are based on the binding and displacement of a proprietary. The assay was performed at room temperature for 1 h in a total volume of 15 μL, including 5 μL of test compound, 5 μL of kinase/antibody mixture and 5 μL of tracer. After 1 h incubation, fluorescence was measured. The division of acceptor/tracer emission (665 nm) by the antibody/donor emission (615 nm) was used to calculate the emission ratio."}, "H2228 cells": {"tested_on": "H2228 cells", "assay": "MTT cell viability assay, H2228 cells", "assay_type": "cell-based", "conditions": "Homo sapiens, NCI-H2228, 72 h treatment", "method": "as §1, §2"}}, "data": [{"smiles": "Cc1sc2nc3c4ccccc4c(NCCCN(C)C)nn3c(=O)c2c1C", "note": "[Formula (V)]", "values": [{"measurement": "IC50", "setting": "normal lung cells CCD19", "result": "16.8 ± 2.04", "unit": "µM"}, {"measurement": "EC50", "setting": "[1]", "result": 0.0196, "unit": "µM"}, {"measurement": "IC50", "setting": "H2228 cells", "result": "4.11 ± 0.96", "unit": "µM"}]}]}
